Measurements from patent US9139557B2, “Carboxamide compounds and their use as calpain inhibitors” (Abbott GmbH & Co. KG, priority 2006, dated 2015).

Legend:
[1] = biological target: T1, cathepsin S (Homo sapiens, UniProt P25774); experiment: Cathepsin S enzyme inhibition in vitro (kinetic fluorescence assay); assay type: biochemical; conditions: Ki(cathepsin S)/Ki(calpain) ratio
T1 construct: purchased Calbiochem 219343; host or cells: E. coli
Method in brief: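 Kinetic fluorescence (ex 390/em 460 nm), room temperature: calpain-I (human erythrocyte, 20 nM) with 100 µM Suc-Leu-Tyr-AMC, imidazole/CaCl2 pH 7.3; cathepsin B (liver, 0.25 nM), 100 µM Z-Phe-Arg-AMC; L (liver, 1 nM), 2 µM Z-Phe-Arg-AMC; S (recombinant, 0.5 nM), 20 µM Z-Val-Val-Arg-AMC; cathepsins in MES/EDTA/cysteine pH 6.0. Apparent Ki via Cheng-Prusoff, 2–4 curves averaged.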

[2] = biological target: T2, calpain-I (Homo sapiens, UniProt P07384); experiment: Calpain I enzyme inhibition in vitro (kinetic fluorescence assay); assay type: biochemical
T2 construct: calpain-I—isolated from human erythrocytes; purchased Calbiochem 208713; host or cells: human erythrocytes (tissue isolate)
T2 sequence (P07384 2-714 limits assumed): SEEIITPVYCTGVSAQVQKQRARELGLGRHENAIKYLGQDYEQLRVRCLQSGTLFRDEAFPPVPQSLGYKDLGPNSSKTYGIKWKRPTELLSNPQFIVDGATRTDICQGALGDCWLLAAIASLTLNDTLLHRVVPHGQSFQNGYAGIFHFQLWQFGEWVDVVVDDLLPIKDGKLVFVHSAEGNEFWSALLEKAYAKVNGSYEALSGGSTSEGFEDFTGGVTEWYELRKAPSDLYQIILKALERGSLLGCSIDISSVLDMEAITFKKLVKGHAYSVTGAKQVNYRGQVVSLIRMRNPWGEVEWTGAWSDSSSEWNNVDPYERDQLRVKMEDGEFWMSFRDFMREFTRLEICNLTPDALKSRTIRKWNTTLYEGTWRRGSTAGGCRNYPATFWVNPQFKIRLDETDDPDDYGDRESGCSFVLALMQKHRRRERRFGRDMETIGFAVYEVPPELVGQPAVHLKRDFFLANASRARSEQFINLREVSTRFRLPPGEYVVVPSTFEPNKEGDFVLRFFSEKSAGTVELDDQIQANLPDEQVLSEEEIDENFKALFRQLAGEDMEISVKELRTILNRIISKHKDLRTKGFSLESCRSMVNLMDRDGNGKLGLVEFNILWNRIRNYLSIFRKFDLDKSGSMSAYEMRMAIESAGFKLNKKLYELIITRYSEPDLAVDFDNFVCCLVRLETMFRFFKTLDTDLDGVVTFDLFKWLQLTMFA
T2 sequence (P04632 1-268 partner): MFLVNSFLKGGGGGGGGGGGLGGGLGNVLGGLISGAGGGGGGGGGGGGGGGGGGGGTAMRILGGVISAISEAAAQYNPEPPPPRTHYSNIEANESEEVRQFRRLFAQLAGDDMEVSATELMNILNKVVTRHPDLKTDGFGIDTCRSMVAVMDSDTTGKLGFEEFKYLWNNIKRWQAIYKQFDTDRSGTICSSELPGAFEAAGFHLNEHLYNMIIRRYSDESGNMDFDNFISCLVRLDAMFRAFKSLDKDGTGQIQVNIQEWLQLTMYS
Description: Testing for blockade of the corresponding enzymic activities was carried out by means of kinetic fluorescence assays (excitation 390 nm, emission 460 nm).
Apparent Ki values were calculated from the experimentally determined IC50 values by the Cheng-Prussoff relation assuming a reversible competitive enzyme inhibition. The Km values of the substrates used under the assay conditions indicated above were: 90 μM (Z-Phe-Arg-AMC, cathepsin B), 10 μM (Z-Gly-Pro-Arg-AMC, cathepsin K), 2 μM (Z-Phe-Arg-AMC, cathepsin L), and 30 μM (Z-Val-Val-Arg-AMC, cathepsin S).
The indicated Ki values are averages of the inhibition constants calculated on the basis of 2 to 4 independent dose-effect plots.
• 1. Calpain I: • 20 nM calpain-I—isolated from human erythrocytes (Calbiochem #208713), 100 μM Suc-Leu-Tyr-AMC (Bachem #1-1355) as substrate in buffer with 62 mM imidazole, 0.3 mM CaCl2, 0.10% CHAPS, 0.05% BSA, 1 mM DTT at pH 7.3 and room temperature. • 2. Cathepsin B: • 0.25 nM cathepsin B—isolated from human liver (Calbiochem #219362), 100 μM Z-Phe-Arg-AMC (Bachem #1-1160) as substrate 50 mM MES, 2 mM EDTA, 0.05% Brij 35, 2.5 mM L-cysteine, pH 6.0, room temperature. • 3. […]

T1 sequence (P25774 115-331): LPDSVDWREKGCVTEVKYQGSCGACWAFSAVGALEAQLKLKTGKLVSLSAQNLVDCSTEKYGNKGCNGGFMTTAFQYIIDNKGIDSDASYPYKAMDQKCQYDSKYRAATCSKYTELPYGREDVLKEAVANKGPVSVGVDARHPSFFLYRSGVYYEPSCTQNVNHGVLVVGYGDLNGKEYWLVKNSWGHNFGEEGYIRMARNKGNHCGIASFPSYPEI

Cl.NC(=O)C(=O)C(Cc1ccccc1)NC(=O)c1cccnc1-n1cnc(-c2ccc(CN3CCOCC3)cc2)c1 (centres unmarked) [Example 26, N-(3-Amino-1-benzyl-2,3-dioxopropyl)-2-{4-[4-(morpholin-4-ylmethyl)phenyl]-1H-imidazol-1-yl}nicotinamide hydrochloride]
Sel cat. S [1]: ++ (++ means a Ki(cathepsin S)/Ki(calpain) ratio of ≧100)
Ki [2]: < 0.04 µM
